Laboratory results taken from patent publication US20130189775A1, “MODULATION OF THE […] RECEPTOR mTOR TO INHIBIT STEM CELL DIFFERENTIATION INTO NEURONS” (priority 2011, published 2013).
pEC50, pKd: −log10 of the molar value. “Also recorded” adds a separate entry of the source. Values belong to the compound of their own block, whether it stands above or below them.

Tests used:
ReN cells [1] = assay: Epic label-free RWG biosensor receptor assay on ReN cells; format: cell-based, human; details: Epic single step assay; for agonist response profile, undifferentiated versus differentiated cells: ReN cells (FIG. 6); for agonist response of differentiated cells: ReN cells differentiated without rapamycin (FIG. 6)
Procedure: The label-free biosensor assays for various receptors was done in the presence of various concentrations of a typical agonist using Corning Epic® system. Assay on undifferentiated cells was carried out simultaneously. […] Undifferentiated receptor profiles were similar to rapamycin treated cells indicating the blockage of differentiation by rapamycin.
ReN Cells were treated with or without rapamycin (5 μM) for 6 days. Cells were washed with HBSS and loaded onto Epic instrument for a single step assay with various receptor agonists. Undifferentiated cells grown for 3-4 days (till confluency) and run of Epic instrument as described above.

[2] = system: quiescent human epidermoid carcinoma A431; assay: EGF-induced DMR response of quiescent A431 cells (optical biosensor); format: cell-based
Source text: The DMR signal mediated through a particular target is an integrated and quantifiable signal that is a sum of contributions from mass redistribution occurring at different distances away from the sensor surface. Because of the complex nature of cell signaling, the activation of distinct cell signaling mediated through different targets might result in similar overall DMR signal. However, because of the participation of unique sets of cellular targets for a specific signaling event, the modulation profiles mediated by a predetermined set of selective modulators might provide a means to classify the specificity of cell signaling being activated by a particular stimulus. Therefore, the DMR response can be treated as a unique and perfect readout for systems biology studies of living cells. […] The effect of various known inhibitors/drugs on the DMR response of quiescent A431 cells linked the cell response to mainly the Ras/mitogen-activated protein (MAP) kinase pathway, which primarily proceeds through MEK.
Another biosensor output parameter can be the kinetics of any of the aspects of data output. For example, the rate at the completion of the phase transitions. For example, how fast are the phase transitions completed or how long does it take to complete data output. Another example of the kinetics that can be measured would be the length of time for which an overall phase of the data output takes. Another example is the total duration of time of one or both of the P- and N-DMR phases. Another example is the rate or time in which it takes to acquire the total amplitudes of one or both of the P- and N-DMR phases. Another example can be the transition time τ from the P- to N-DMR phase. The kinetics of both P-DMR and N-DMR events or phases can also be measured. For example, stimulation of human quiescent human epidermoid carcinoma A431 with epidermal growth factor (EGF) results in a dynamic response consisting of at least three phases. […]

ReN cells [3] = assay: ReN cell neural progenitor differentiation, phase contrast microscopy; format: cell-based, human; details: for block of neural progenitor differentiation by PI3-K / Akt inhibitors: ReN cells differentiated in presence of inhibitor for 6-7 days (FIG. 3, FIG. 4)
Procedure: To evaluate the role of kinases in the differentiation of neural stem cells, we added kinase inhibitors from the BIOMOL kinase inhibitor library to the culture during the differentiation process. Kinase inhibitors were replaced on alternate days during media change. Cultures were grown for 6-7 days. We used phase contrast imaging and immunocytochemistry to understand the difference in the morphological differentiation.
General procedure for neuronal stem cell culture on laminin surface: • 96 well CellBind™ treated plates were washed with 70% ethanol and kept ON in the hood • Next day morning, plates were washed twice with 1×PBS • Laminin (50 μl, 20 μg/ml) was added to the wells and incubated 37° C. incubator for 5 hrs. • Wells were washed with 1×PBS after incubation. • Cells were seeded at 20,000 cells/well • For undifferentiated cells, the cultures were grown for 9 days. Media was changed everyday with growth factor supplementation • For differentiated cells, the growth factor deprived media was added after next day after seeding and cells were grown further for 6 days with media changes every other day. • Rapamycin and other inhibitors were added to the cells when the media was changed to growth factor independent media. Media was maintained throughout the study and changed on alternate days. ReNcell NSC Maintenance Medium contains DMEM/F12 w/o HEPES, w/L-Glutamine, human serum albumin, human transferrin, putrescine dihydrochloride, human recombinant insulin, L-thyroxine, Tri-iodo-thyronine, progesterone, sodium selenite, heparin, corticosterone. […] The growth factors used were EGF (Epidermal growth factor) and bFGF (Basic fibroblast growth factor).
Kinase inhibitors (1 μM) was added to the cells next day after seeding and replenished during media changes on alternate days. Phase contrast microscopy was done after 6 days as described below. […]
After the experiment, the cells were fixed with 4% paraformaldehyde and washed thrice with 1×PBS. Cells were assessed using a Ziess Axiovert 200M inverted Brightfield/fluorescence microscope.

Compound: CNC[C@H](O)c1ccc(O)c(O)c1 [epinephrine]
- agonist response profile, undifferentiated versus differentiated cells (ReN cells [1]): different profiles

- pEC50 ([2]; EGF stimulation, read-out: EC50 from amplitudes of the N-DMR signals): ~8.84
Compound: EGF: epidermal growth factor
- pKd ([2]; EGF stimulation, read-out: Kd from one-phase decay constant κ of the N-DMR signal): 8.24

Compound: NCCc1ccc(O)c(O)c1 [dopamine]
- agonist response profile, undifferentiated versus differentiated cells (ReN cells [1]): different profiles

Compound: C[C@@H](N)[C@H]1CC[C@H](C(=O)Nc2ccncc2)CC1 [Y27632]
- block of neural progenitor cell differentiation by ROCK inhibitor (ReN cells [3]; Y27632 1 μM, 6-7 days (FIG. 5)): had no effect on the differentiation process; also recorded: did not block neural progenitor cell differentiation

Compound: Nc1ncnc2c1ncn2[C@@H]1O[C@H](CO)[C@@H](O)[C@H]1O [Adenosine]
- agonist response profile, undifferentiated versus differentiated cells (ReN cells [1]): different profiles

Compound: O=c1[nH]c2ccccc2n1C1CCN(Cc2ccc(-c3[nH]c4cc5ncnc5cc4nc3-c3ccccc3)cc2)CC1 [A6730]
- block of neural progenitor differentiation by PI3-K / Akt inhibitors (ReN cells [3]): did not block the neural progenitor differentiation

Compound: COc1cc2ncnc(Nc3cccc(Cl)c3)c2cc1OC [AG1478]
- suppression of EGF-induced DMR response [2]: fully suppressed

Compound: NCCc1c[nH]c2ccc(O)cc12 [serotonin]
- agonist response of differentiated cells (ReN cells [1]): did not responds to these stimuli

Compound: O=C(O)c1ccc2nc(-c3ccccc3)c(-c3ccccc3)nc2c1 [BML-257]
- block of neural progenitor differentiation by PI3-K / Akt inhibitors (ReN cells [3]): did not block the neural progenitor differentiation

Compound: NCCCC(=O)O [GABA]
- agonist response of differentiated cells (ReN cells [1]): did not responds to these stimuli
